Experimental data: patent US9334246B2, “Substituted triazines for malaria treatment and chemoprophylaxis” (The United States of America, as represented by the …, priority 2013, dated 2016)

Key:
Format in all cases: cell-based, Plasmodium falciparum
P. falciparum D6 = test: Malaria SYBR Green Fluorescence Assay, D6 strain; settings: for D6: SYBR Green Assay
P. falciparum W2 = test: Malaria SYBR Green Fluorescence Assay, W2 strain; settings: for W2: SYBR Green Assay
P. falciparum C235 = test: Malaria SYBR Green Fluorescence Assay, C235 strain; settings: for C235: SYBR Green Assay

Row | Compound | D6 (SYBR Green Assay IC50) (P. falciparum D6) [µg/mL] | W2 (SYBR Green Assay IC50) (P. falciparum W2) [µg/mL] | C235 (SYBR Green Assay IC50) (P. falciparum C235) [µg/mL] | D6 (P. falciparum D6) [ng/mL] | W2 (P. falciparum W2) [ng/mL] | C235 (P. falciparum C235) [ng/mL]
1 | CCN1CCC(CNc2nc(-c3ccccc3)nc(C(Cl)(Cl)Cl)n2)CC1 [Cmpd 410] | 0.103 | 0.035 | 0.113 | – | – | –
2 | CN1CCN(c2nc(-c3ccccc3)nc(C(Cl)(Cl)Cl)n2)CC1 [Cmpd 239] | – | – | – | 192 | 125 | 158
3 | COc1cccc(Cc2nc(N3CCCN(C)CC3)nc(C(Cl)(Cl)Cl)n2)c1 [Cmpd 269] | – | – | – | 835 | 286 | 627
4 | CC(C)CN1CCC(Nc2nc(-c3cccc(Cl)c3)nc(C(Cl)(Cl)Cl)n2)CC1 [Compound 701, CC(C)CN1CCC(CC1)NC1═NC(═NC(═N1)C1═CC(Cl)═CC═C1)C(Cl)(Cl)Cl] | – | – | – | 282 | 195 | 351
5 | CC(C)N1CCC(CNc2nc(-c3ccccc3[N+](=O)[O-])nc(C(Cl)(Cl)Cl)n2)CC1 [Cmpd 497] | 0.913 | 0.176 | 0.469 | – | – | –
6 | CS(═O)(═O)C1═CC═C(C═C1)C1═NC(NCC2(N)CCCCC2)═NC(═N1)C(Cl)(Cl)Cl [Compound 665] | – | – | – | 76 | 76 | 147
7 | CCN1CCCC(C1)NC1═NC(NC2═CC═C(OC(F)(F)F)C═C2)═NC(═N1)C(Cl)(Cl)Cl [Compound 655] | – | – | – | 19 | 11 | 28
8 | COc1ccc(Nc2nc(NCC(C)(C)N)nc(C(Cl)(Cl)Cl)n2)cn1 [Cmpd 403] | 0.134 | 0.078 | 0.203 | – | – | –
9 | CC(=O)Nc1cccc(Nc2nc(C(Cl)(Cl)Cl)nc(C(Cl)(Cl)Cl)n2)c1 [Compound 727, CC(═O)Nc1cccc(Nc2nc(nc(n2)C(Cl)(Cl)Cl)C(Cl)(Cl)Cl)c1] | – | – | – | 256 | 131 | 319
10 | CCC(N)(CC)CNc1nc(-c2ccc(Cl)c(Cl)c2)nc(C(Cl)(Cl)Cl)n1 [Cmpd 388] | 0.132 | 0.098 | 0.153 | – | – | –
11 | FC(F)(F)OC1═CC═C(NC2═NC(═NC(═N2)C(Cl)(Cl)Cl)N2CC3CC2CN3)C═C1 [Compound 725] | – | – | – | 64 | 53 | 93
12 | CCN1CCC(CNc2nc(-c3ccccc3-c3ccc(C)cc3)nc(C(Cl)(Cl)Cl)n2)CC1 [Cmpd 259] | – | – | – | 162 | 105 | 113
13 | CC(C)N1CCC(CNc2nc(-c3ccc(C(Cl)(Cl)Cl)cc3)nc(C(Cl)(Cl)Cl)n2)CC1 [Cmpd 492] | 0.095 | 0.033 | 0.052 | – | – | –
14 | CC1═CC═C(C═C1)C1═NC(NCC2(N)CCCCC2)═NC(═N1)C(Cl)(Cl)Cl [Compound 660] | – | – | – | 8 | 9 | 17
15 | CN(C)CCCNc1nc(-c2ccc(S(C)(=O)=O)cc2)nc(C(Cl)(Cl)Cl)n1 [Cmpd 442] | 0.002 | 0.001 | 0.002 | – | – | –
16 | COc1ccc(-c2nc(NCC(C)(C)N)nc(C(Cl)(Cl)Cl)n2)cc1OC [Cmpd 396] | 0.086 | 0.049 | 0.117 | – | – | –
17 | CSc1ccc(-c2nc(NCC3(N)CCCCC3)nc(C(Cl)(Cl)Cl)n2)cc1 [Compound 664, CSC1═CC═C(C═C1)C1═NC(NCC2(N)CCCCC2)═NC(═N1)C(Cl)(Cl)Cl] | – | – | – | 18 | 21 | 47
18 | NC1CCN(CC1)C1═NC(═NC(═N1)C1═CC2═C(C═CC═C2)C═C1)C(Cl)(Cl)Cl [Compound 628] | 0.042 | 0.017 | 0.02 | – | – | –
19 | CC(C)(C)c1ccc(-c2nc(N3CCC(N)CC3)nc(C(Cl)(Cl)Cl)n2)cc1 [Compound 624, CC(C)(C)C1═CC═C(C═C1)C1═NC(═NC(═N1)C(Cl)(Cl)Cl)N1CCC(N)CC1] | 0.091 | 0.043 | 0.062 | – | – | –
20 | OCCN1CCCN(c2nc(-c3ccc(Cl)cc3)nc(C(Cl)(Cl)Cl)n2)CC1 [Cmpd 455] | 0.214 | 0.065 | 0.118 | – | – | –
21 | CCN1CCC(CNc2nc(-c3ccc(C)cc3)nc(C(Cl)(Cl)Cl)n2)CC1 [Cmpd 265] | – | – | – | 803 | 714 | 672
22 | CC1(C)CC(Nc2nc(-c3ccc(C(Cl)(Cl)Cl)cc3)nc(C(Cl)(Cl)Cl)n2)CC(C)(C)N1 [Cmpd 325] | – | – | – | 123 | 82 | 269
23 | NC1(CNC2═NC(═NC(═N2)C2═CC(Cl)═CC(Cl)═C2)C(Cl)(Cl)Cl)CC1 [Compound 683] | – | – | – | 727 | 503 | 795
24 | COc1ccc(-c2nc(N3CCN(CCO)CC3)nc(C(Cl)(Cl)Cl)n2)c2ccccc12 [Cmpd 422] | 0.291 | 0.073 | 0.31 | – | – | –
